This note sets out measurements from US10336762B2 (priority 2017, dated 2019).

One may read the EC50 as the concentration giving half of the maximal effect. A word on the IC50: it is the concentration at which inhibition is half-maximal. High values mean a need for much substance, low ones inhibition by little substance.

The subject of experiment [1] is TNFα. As to the kind of experiment: cells. Format: cell-based, human. The following applies: Homo sapiens, Monocyte, LPS-stimulated human monocytes, TNFα by TR-FRET; read-out: EC50 TNF.
In experiment [2] the target is IRAK4 enzyme (Homo sapiens (Human), UniProt Q9NWZ3). As to the kind of experiment: biochemical. Format: biochemical. The conditions noted are these: IRAK4 enzyme, TR-FRET, 500 μM ATP. On the technique in general: In TR-FRET formats the signal depends on donor and acceptor labels being close together.
Chain of IRAK4 enzyme (Q9NWZ3 whole entry): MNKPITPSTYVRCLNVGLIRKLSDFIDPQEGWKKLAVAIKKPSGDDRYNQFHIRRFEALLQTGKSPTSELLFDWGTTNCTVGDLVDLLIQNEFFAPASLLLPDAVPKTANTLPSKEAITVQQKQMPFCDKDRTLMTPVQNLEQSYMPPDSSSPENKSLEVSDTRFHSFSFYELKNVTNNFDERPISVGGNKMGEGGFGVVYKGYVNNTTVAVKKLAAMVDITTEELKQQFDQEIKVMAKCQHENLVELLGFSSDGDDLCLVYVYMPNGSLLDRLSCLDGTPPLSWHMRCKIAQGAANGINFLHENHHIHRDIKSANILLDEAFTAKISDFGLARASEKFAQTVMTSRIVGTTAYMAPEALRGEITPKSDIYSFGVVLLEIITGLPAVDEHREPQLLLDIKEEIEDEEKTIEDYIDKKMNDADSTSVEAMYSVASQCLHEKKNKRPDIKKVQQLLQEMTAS

With `CC(C)(O)[C@H](F)CNC(=O)c1cnc(-c2ccc3cc(C#N)cnn23)cc1Nc1cncc(OCC(F)(F)F)c1` [Example 857, (R)-6-(3-cyanopyrrolo[1,2-b]pyridazin-7-yl)-N-(2-fluoro-3-hydroxy-3-methylbutyl)-4-((5-(2,2,2-trifluoroethoxy)pyridin-3-yl)amino)nicotinamide], the EC50 in experiment [1] was determined as 9 nM. The IC50 in experiment [2] is < 1 nM.
As for `N#Cc1cnn2c(-c3cc(Nc4cnc5c(c4)OCCO5)c(C(=O)N[C@H]4CC[C@H](NC(=O)C5CC5)CC4)cn3)ccc2c1` [Example 858, 6-(3-cyanopyrrolo[1,2-b]pyridazin-7-yl)-N-((1r,4r)-4-(cyclopropanecarboxamido)cyclohexyl)-4-((2,3-dihydro-[1,4]dioxino[2,3-b]pyridin-7-yl)amino)nicotinamide], the EC50 in experiment [1] is 20 nM. Further, in experiment [2], the half-maximal inhibitory concentration (IC50) was < 1 nM.
As for `CN1CCOc2cc(Nc3cc(-c4ccc5cc(C#N)cnn45)ncc3C(=O)N[C@H]3CC[C@H](NC(=O)C4CC4)CC3)ccc21` [Example 859, 6-(3-cyanopyrrolo[1,2-b]pyridazin-7-yl)-N-((1r,4r)-4-(cyclopropanecarboxamido)cyclohexyl)-4-((4-methyl-3,4-dihydro-2H-benzo[b][1,4]oxazin-7-yl)amino)nicotinamide], in experiment [1], the EC50 stood at 89 nM. Besides, the IC50 in experiment [2] is 3 nM.
The like results for `CN1CCOc2cc(Nc3cc(-c4ccc5cc(C#N)cnn45)ncc3C(=O)N[C@H]3CC[C@H](NC(=O)N4CCOCC4)CC3)ccc21` [Example 860, N-((1r,4r)-4-(6-(3-cyano-pyrrolo[1,2-b]pyridazin-7-yl)-4-((4-methyl-3,4-dihydro-2H-benzo[b][1,4]oxazin-7-yl)amino)nicotin-amido)cyclohexyl) morpholine-4-carboxamide] were, in that order, 31 nM and 2 nM.
The matching figures for `N#Cc1cnn2c(-c3cc(Nc4cnc5c(c4)OCCO5)c(C(=O)N[C@H]4CC[C@H](NC(=O)N5CCOCC5)CC4)cn3)ccc2c1` [Example 861, N-((1r,4r)-4-(6-(3-cyano-pyrrolo[1,2-b]pyridazin-7-yl)-4-((2,3-dihydro-[1,4]dioxino[2,3-b]pyridin-7-yl)amino)nicotinamido)cyclohexyl)morpholine-4-carboxamide]: 16 nM and < 1 nM.
In the case of `CC(C)(O)[C@H](F)CNC(=O)c1cnc(-c2ccc3cc(C#N)cnn23)cc1Nc1cnc2c(c1)COCC2` [Example 862, (R)-6-(3-cyanopyrrolo[1,2-b]pyridazin-7-yl)-4-((7,8-dihydro-5H-pyrano[4,3-b]pyridin-3-yl)amino)-N-(2-fluoro-3-hydroxy-3-methylbutyl)nicotinamide], the half-maximal effective concentration (EC50) in experiment [1] came out at 46 nM. Besides, the IC50 in experiment [2] was < 1 nM.
Consider `CC(C)(O)[C@H](F)CNC(=O)c1cnc(-c2ccc3cc(C#N)cnn23)cc1Nc1ccc2c(c1)CNC2` [Example 863, (R)-6-(3-cyanopyrrolo[1,2-b]pyridazin-7-yl)-N-(2-fluoro-3-hydroxy-3-methylbutyl)-4-(isoindolin-5-ylamino)nicotinamide], for which the EC50 in experiment [1] was found to be 74 nM. Further, the IC50 in experiment [2] was < 1 nM.
`CC(C)(O)[C@H](F)CNC(=O)c1cnc(-c2ccc3cc(C#N)cnn23)cc1Nc1ccc2c(c1)CN(C1COC1)C2` [Example 864, (R)-6-(3-cyanopyrrolo[1,2-b]pyridazin-7-yl)-N-(2-fluoro-3-hydroxy-3-methylbutyl)-4-((2-(oxetan-3-yl)isoindolin-5-yl)amino) nicotinamide]: the EC50 in experiment [1] stood at 69 nM. Besides, the IC50 in experiment [2] was < 1 nM.
As for `COC(=O)NC1(c2ccc(Nc3cc(-c4ccc5cc(C#N)cnn45)ncc3C(=O)N[C@H]3CC[C@H](NC(=O)C4CC4)CC3)cc2)CC1` [Example 866, methyl (1-(4-((2-(3-cyano-pyrrolo[1,2-b]pyridazin-7-yl)-5-(((1r,4r)-4-(cyclopropanecarboxamido)cyclohexyl)carbamoyl)pyridin-4-yl)amino)phenyl)cyclopropyl)carbamate], in experiment [1], the EC50 is 37 nM. In experiment [2], this molecule returned an IC50 of 1 nM.
In the case of `[2H]C([2H])([2H])OC(=O)NC[C@H]1C[C@H](Nc2cc(-c3ccc4cc(C#N)cnn34)ncc2C(=O)NC[C@@H](F)C(C)(C)O)C1` [Example 867, methyl-d3 (((1R,3r)-3-((2-(3-cyanopyrrolo[1,2-b]pyridazin-7-yl)-5-(((R)-2-fluoro-3-hydroxy-3-methylbutyl)carbamoyl)pyridin-4-yl)amino)cyclo-butyl)methyl)carbamate], the EC50 in experiment [1] was 6 nM. The concentration for half-maximal inhibition (IC50) in experiment [2] was < 1 nM.
As to `COC(=O)N1CCN(c2ccc(Nc3cc(-c4ccc5cc(C#N)cnn45)ncc3C(=O)NC[C@@H](F)C(C)(C)O)cn2)CC1` [Example 870, (R)-methyl 4-(5-((2-(3-cyanopyrrolo[1,2-b]pyridazin-7-yl)-5-((2-fluoro-3-hydroxy-3-methylbutyl)carbamoyl)pyridin-4-yl)amino)pyridin-2-yl)piperazine-1-carboxylate], the EC50 in experiment [1] worked out at 81 nM. This molecule also registered an IC50 in experiment [2] of 1 nM.
The matching figures for `CC(C)(O)[C@H](F)CNC(=O)c1cnc(-c2ccc3cc(C#N)cnn23)cc1Nc1ccc(N2CCN(C3COC3)CC2)nc1` [Example 871, (R)-6-(3-cyanopyrrolo[1,2-b]pyridazin-7-yl)-N-(2-fluoro-3-hydroxy-3-methylbutyl)-4-((6-(4-(oxetan-3-yl)piperazin-1-yl)pyridin-3-yl)amino)nicotinamide]: 51 nM and 1 nM.
The like results for `CC(C)(O)[C@H](F)CNC(=O)c1cnc(-c2ccc3cc(C#N)cnn23)cc1Nc1ccc(CNCC(F)F)cc1` [Example 872, (R)-6-(3-cyanopyrrolo[1,2-b]pyridazin-7-yl)-4-((4-(((2,2-difluoroethyl)amino)methyl)phenyl)amino)-N-(2-fluoro-3-hydroxy-3-methylbutyl)nicotinamide] were, in that order, 14 nM and < 1 nM.
The like results for `CC1(C(=O)NC[C@H]2C[C@H](Nc3cc(-c4ccc5cc(C#N)cnn45)ncc3C(=O)NC[C@@H](F)C(C)(C)O)C2)COC1` [Example 873, 6-(3-cyanopyrrolo[1,2-b]pyridazin-7-yl)-N-((R)-2-fluoro-3-hydroxy-3-methylbutyl)-4-(((1r,3R)-3-((3-methyloxetane-3-carboxamido)methyl)cyclobutyl)amino) nicotinamide] were, in that order, 102 nM and < 1 nM.
Consider `CC(C)(O)[C@H](F)CNC(=O)c1cnc(-c2ccc3cc(C#N)cnn23)cc1Nc1ccc(C(C)(C)N2CCOC2=O)cc1` [Example 874, (R)-6-(3-cyanopyrrolo[1,2-b]pyridazin-7-yl)-N-(2-fluoro-3-hydroxy-3-methylbutyl)-4-((4-(2-(2-oxooxazolidin-3-yl)propan-2-yl)phenyl)amino)nicotinamide], for which the EC50 in experiment [1] worked out at 13 nM. Besides, the IC50 in experiment [2] is < 1 nM.
The like results for `CC(C)(O)[C@H](F)CNC(=O)c1cnc(-c2ccc3cc(C#N)cnn23)cc1Nc1ccc(C(C)(C)N2CCCC2=O)cc1` [Example 875, (R)-6-(3-cyanopyrrolo[1,2-b]pyridazin-7-yl)-N-(2-fluoro-3-hydroxy-3-methyl-butyl)-4-((4-(2-(2-oxo-pyrrolidin-1-yl)propan-2-yl)phenyl)amino)nicotinamide] were, in that order, 64 nM and 2 nM.
As for `CC(C)(O)[C@H](F)CNC(=O)c1cnc(-c2ccc3cc(C#N)cnn23)cc1Nc1ccc(C2(N3CCOC3=O)CC2)cc1` [Example 876, (R)-6-(3-cyanopyrrolo[1,2-b]pyridazin-7-yl)-N-(2-fluoro-3-hydroxy-3-methylbutyl)-4-((4-(1-(2-oxooxazolidin-3-yl)cyclo-propyl)phenyl)amino) nicotinamide], the EC50 in experiment [1] came out at 24 nM. The IC50 in experiment [2] is < 1 nM.
The like results for `CC(C)(O)[C@H](F)CNC(=O)c1cnc(-c2ccc3cc(C#N)cnn23)cc1Nc1ccc(N2CCCC2)nc1` [Example 877, (R)-6-(3-cyano-pyrrolo[1,2-b]pyridazin-7-yl)-N-(2-fluoro-3-hydroxy-3-methylbutyl)-4-((6-(pyrrolidin-1-yl)pyridin-3-yl)amino) nicotinamide] were, in that order, 46 nM and 2 nM.
Consider `CC(=O)NC[C@@H]1CCCN1c1ccc(Nc2cc(-c3ccc4cc(C#N)cnn34)ncc2C(=O)NC[C@@H](F)C(C)(C)O)cn1` [Example 878, 4-((6-((S)-2-(acetamidomethyl)pyrrolidin-1-yl)pyridin-3-yl)amino)-6-(3-cyanopyrrolo[1,2-b]pyridazin-7-yl)-N-((R)-2-fluoro-3-hydroxy-3-methylbutyl)nicotinamide], for which, in experiment [1], the concentration for a half-maximal effect (EC50) came to 141 nM. Also, the IC50 in experiment [2] came to 2 nM.
The matching figures for `COC(=O)NC[C@@H]1CCCN1c1ccc(Nc2cc(-c3ccc4cc(C#N)cnn34)ncc2C(=O)NC[C@@H](F)C(C)(C)O)cn1` [Example 879, methyl (((S)-1-(5-((2-(3-cyanopyrrolo[1,2-b]pyridazin-7-yl)-5-(((R)-2-fluoro-3-hydroxy-3-methylbutyl)carbamoyl)pyridin-4-yl)amino)pyridin-2-yl)pyrrolidin-2-yl)methyl)carbamate]: 225 nM and 1 nM.
The matching figures for `CC(=O)NC1CCN(c2ccc(Nc3cc(-c4ccc5cc(C#N)cnn45)ncc3C(=O)NC[C@@H](F)C(C)(C)O)cn2)CC1` [Example 880, (R)-4-((6-(4-acetamido-piperidin-1-yl)pyridin-3-yl)amino)-6-(3-cyano-pyrrolo[1,2-b]pyridazin-7-yl)-N-(2-fluoro-3-hydroxy-3-methylbutyl) nicotinamide]: 58 nM and < 1 nM.
The matching figures for `COC(=O)NC1CCN(c2ccc(Nc3cc(-c4ccc5cc(C#N)cnn45)ncc3C(=O)NC[C@@H](F)C(C)(C)O)cn2)CC1` [Example 881, (R)-methyl (1-(5-((2-(3-cyanopyrrolo[1,2-b]pyridazin-7-yl)-5-((2-fluoro-3-hydroxy-3-methylbutyl)carbamoyl)pyridin-4-yl)amino)pyridin-2-yl)piperidin-4-yl)carbamate]: 84 nM and < 1 nM.
